The source of these data is article PMC8617063 (Nature Communications, 2021).

One data set deals with tail bleeding. Conditions: rat, in vivo; for RT50 for bleeding: iv.
The conditions of data set [1]: in vivo, cited from earlier work.
Another data set has as its system saphenous vein bleeding. Conditions: rat, in vivo.
The next data set concerns ear vein bleeding. Conditions: pig, in vivo.
Data set [2] concerns the target α-thrombin (UniProt P00734).
The next data set deals with thrombin (Homo sapiens, UniProt P00734). Put plainly: biochemical.
The target in data set [3] is α-thrombin (UniProt P00734). Put plainly: enzyme inhibition (thrombin amidolytic activity on chromogenic substrate S2238); 0.83 nM thrombin, varying concentrations of peptide, 100 µM S2238 (100-400 µM for ultravariegin); 50 mM Tris pH 7.4, 100 mM NaCl, 1 mg/ml BSA, room temperature; tight-binding fit gives apparent Ki', Ki from Ki' for competitive inhibition; for UV011 Ki = IC50 (non-competitive inhibition assumed).

Read-outs that look alike come from different tables or passages of the source. Ends that are not written are not given here.

Turning to `CC[C@H](C)[C@H](NC(=O)[C@H](CCC(=O)O)NC(=O)[C@H](CCC(=O)O)NC(=O)[C@H](Cc1ccccc1)NC(=O)[C@H](CC(=O)O)NC(=O)CNC(=O)[C@H](CC(N)=O)NC(=O)CNC(=O)CNC(=O)CNC(=O)CNC(=O)[C@@H]1CCCN1C(=O)[C@H](CCCNC(=N)N)NC(=O)[C@@H]1CCCN1C(=O)[C@H](N)Cc1ccccc1)C(=O)N1CCC[C@H]1C(=O)N[C@@H](CCC(=O)O)C(=O)N[C@@H](CCC(=O)O)C(=O)N[C@@H](Cc1ccc(O)cc1)C(=O)N[C@@H](CC(C)C)C(=O)O` [Bivalirudin, reference compound], in the data set with tail bleeding, the “Tail bleeding” value is 20.5 min, the tail bleeding time result was “maximal bleeding” and the RT50 for bleeding amounted to 4.0 mg/kg/h. In addition, in data set [1], the half-life (in general, the time needed for the level to fall by half in the phase considered) is given as 25 min and the plasma concentration entry is on record as “around 2.7 µM”. Further, the “Sephaneous vein bleeding” value with saphenous vein bleeding is on record as 4.131 min. In the data set with ear vein bleeding, this molecule showed a bleeding time of 45 min.

As to `CC[C@H](C)[C@H](NC(=O)[C@H](C)NC(=O)[C@H](CCC(=O)O)NC(=O)[C@H](Cc1ccccc1)NC(=O)[C@H](CC(=O)O)NC(=O)[C@H](Cc1ccccc1)NC(=O)[C@@H]1CCCN1C(=O)[C@@H]1CCCN1C(=O)[C@H](C)NC(=O)[C@@H](NC(=O)[C@H](CCCCN)NC(=O)[C@H](Cc1cnc[nH]1)NC(=O)[C@H](CCSC)NC(=O)[C@H](CCCCN)NC(=O)[C@@H]1CCCN1C(=O)[C@H](CCC(=O)O)NC(=O)[C@H](C)NC(=O)[C@@H](NC(=O)[C@H](CC(=O)O)NC(=O)CNC(=O)[C@H](CCC(N)=O)NC(=O)[C@H](CC(=O)O)NC(=O)[C@@H](N)CO)C(C)C)[C@@H](C)O)C(=O)N1CCC[C@H]1C(=O)N[C@@H](CCC(=O)O)C(=O)N[C@@H](CCC(=O)O)C(=O)N[C@@H](Cc1ccc(O)cc1)C(=O)N[C@@H](CC(C)C)C(=O)N[C@@H](CC(=O)O)C(=O)N[C@@H](CC(=O)O)C(=O)N[C@@H](CCC(=O)O)C(=O)N[C@@H](CO)C(=O)O` [Variegin], in the data set on tail bleeding, the “Bleeding, Response time” value amounted to 60 min; the “Tail bleeding” value was determined as 8 min; the tail bleeding time is given as ~ 30 min; the RT50 for bleeding is recorded as 5.3 mg/kg. Besides, in data set [1], the average plasma concentration is ~ 30 nM and the half-life is reported as 52.3 ± 4.4 min. Besides, the volume of distribution result in data set [1] (pig) is recorded as “around 750 ml/kg”. In the data set on saphenous vein bleeding, the “Sephaneous vein bleeding” value worked out at 2.613 min. In addition, in the data set on ear vein bleeding, the bleeding time was 7.7 ± 2.6 min. In the data set on ear vein bleeding (iv, 1 mg/kg), this molecule returned a bleeding time of 10.3 min.

Turning to Bivalirudin (peptide), the Ki with α-thrombin [2] was found to be 1.78 nM.

As for MYSTAPPGDFEEIPDDAIEE [UV011], at thrombin (Ki (pM)), the Ki came to 1660 ± 759 pM.

“SDEAVRAIPKMYSTAPPGDFEEIPDDAIEE [Ultravariegin]”: in the data set with tail bleeding, the “Tail bleeding” value was determined as 7.5 min and the RT50 for bleeding is given as 2.0 mg/kg. Also, the “Sephaneous vein bleeding” value in the data set with saphenous vein bleeding stood at 2.252 min. Further, on thrombin (Ki (pM)), the Ki came to 4.02 pM. Besides, the Ki at thrombin (Ki, y-intercept of line fitted to Ki′ = Ki (1 + S/Km)) stood at 4.2 ± 0.3 pM. The molecule further yielded a bleeding time in the data set with ear vein bleeding of 6.2 ± 1.3 min.

On to “SDEAVRAIPKMYSTAPPGDFETIPDDAIEE [DAA34688.1 repeat 1C]”, for which the Ki on thrombin (Ki (pM)) worked out at 6.5 ± 1.3 pM.

Take “SDEAVRAIPKMYSTAPPGDFETIPDDAIEER [DAA34688.1 repeat 1B]”: the Ki at thrombin (Ki (pM)) came to 20.5 ± 4.7 pM.

On to “SDEAVRAIPKMYSTAPPGDFETIPDDAIEEREMKAR [DAA34688.1 repeat 1]”, for which the Ki on thrombin (Ki (pM)) stood at 43.2 ± 8 pM.

The molecule “SGGHQTAVPKISKQGLGGDFEEIPSDEIIE [Avathrin, reference compound]” gave a Ki at thrombin (Ki (pM)) of 624 ± 86 pM.

Turning to Ultravariegin (peptide), in the data set with α-thrombin [3], the Ki was determined as 0.004 nM.
